Results as given in patent US20230271954A1 (Gossamer Bio Services, Inc., priority 2020, published 2023).

What was measured:
[1] = target: T1, DGKζ (Homo sapiens, UniProt Q13574); experiment: DGKζ biochemical assay (ADP-Glo); details: read-out: DGK ζ IC50
T1 construct: purchased Carna 12-110

[2] = target: DGKα (Homo sapiens, UniProt P23743); experiment: DGKα biochemical assay (ADP-Glo); details: read-out: DGK α IC50
Outline: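 ADP-Glo kinase assay using OAG/PS (1:2) lipid substrate, sonicated, in HEPES pH 7.0 buffer with MgCl2, CaCl2, DTT, BSA, Triton X-100. Enzyme preincubated with compound 30 min at RT; substrate with ATP (DGKα: 400 μM) added, 45 min RT. Luminescence read; % inhibition vs DMSO and no-enzyme controls.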

Chain of DGKα (P23743 whole entry): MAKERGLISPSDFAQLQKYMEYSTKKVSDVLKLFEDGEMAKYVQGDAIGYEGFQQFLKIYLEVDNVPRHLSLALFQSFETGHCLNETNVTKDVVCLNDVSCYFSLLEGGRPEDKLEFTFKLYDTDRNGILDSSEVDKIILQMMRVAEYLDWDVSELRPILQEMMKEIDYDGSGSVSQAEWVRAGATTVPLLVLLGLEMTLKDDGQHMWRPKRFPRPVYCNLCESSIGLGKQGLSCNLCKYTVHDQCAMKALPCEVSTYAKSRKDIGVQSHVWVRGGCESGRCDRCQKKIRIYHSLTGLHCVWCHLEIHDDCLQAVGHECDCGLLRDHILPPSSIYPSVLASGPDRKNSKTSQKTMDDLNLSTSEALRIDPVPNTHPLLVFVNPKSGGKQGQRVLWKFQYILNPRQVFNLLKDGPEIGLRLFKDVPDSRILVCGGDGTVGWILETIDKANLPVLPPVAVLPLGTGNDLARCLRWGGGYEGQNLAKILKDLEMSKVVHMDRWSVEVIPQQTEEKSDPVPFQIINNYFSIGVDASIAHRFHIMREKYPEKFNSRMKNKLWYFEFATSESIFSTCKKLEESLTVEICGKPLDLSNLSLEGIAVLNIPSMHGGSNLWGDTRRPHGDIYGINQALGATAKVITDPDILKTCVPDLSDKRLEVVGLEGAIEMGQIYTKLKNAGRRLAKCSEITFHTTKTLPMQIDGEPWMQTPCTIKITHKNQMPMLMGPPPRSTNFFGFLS
T1 sequence (Q13574 1-929 isoform Q13574-4): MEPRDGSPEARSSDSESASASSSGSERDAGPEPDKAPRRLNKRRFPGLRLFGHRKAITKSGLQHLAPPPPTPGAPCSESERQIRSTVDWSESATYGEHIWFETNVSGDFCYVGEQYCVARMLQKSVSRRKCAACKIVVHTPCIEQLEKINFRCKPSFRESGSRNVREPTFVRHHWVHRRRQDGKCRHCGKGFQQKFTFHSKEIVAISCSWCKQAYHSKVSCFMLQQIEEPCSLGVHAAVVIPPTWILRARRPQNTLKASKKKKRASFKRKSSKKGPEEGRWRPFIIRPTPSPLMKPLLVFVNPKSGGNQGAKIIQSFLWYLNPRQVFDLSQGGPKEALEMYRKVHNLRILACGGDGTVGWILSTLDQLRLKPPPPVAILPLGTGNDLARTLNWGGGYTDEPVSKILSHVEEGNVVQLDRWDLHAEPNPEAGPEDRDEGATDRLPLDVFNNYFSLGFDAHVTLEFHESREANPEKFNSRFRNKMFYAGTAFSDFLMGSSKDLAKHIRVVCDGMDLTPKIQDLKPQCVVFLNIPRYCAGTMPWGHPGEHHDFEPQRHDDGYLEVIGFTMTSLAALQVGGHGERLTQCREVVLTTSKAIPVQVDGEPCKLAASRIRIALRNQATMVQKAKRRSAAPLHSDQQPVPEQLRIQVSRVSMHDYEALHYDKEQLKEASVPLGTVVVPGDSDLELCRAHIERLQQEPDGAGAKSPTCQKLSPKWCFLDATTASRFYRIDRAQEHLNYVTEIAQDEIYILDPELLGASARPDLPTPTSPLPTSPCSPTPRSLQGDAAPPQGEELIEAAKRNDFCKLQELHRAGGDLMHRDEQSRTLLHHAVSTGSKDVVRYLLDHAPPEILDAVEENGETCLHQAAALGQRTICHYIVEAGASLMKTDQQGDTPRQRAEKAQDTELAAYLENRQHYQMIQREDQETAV

| Structure (SMILES) | IC50 [1] [nM] | IC50 [2] [nM] |
| --- | --- | --- |
| Cn1c(=O)c(C#N)c(N(C)[C@H]2CC[C@@H](N(C[C@H]3C[C@H](O)C3)c3ccc(F)cc3)CC2)c2nc(C#N)ccc21 [Example 201, cis-8-((-4-((4-fluorophenyl)((trans-3-hydroxycyclobutyl)methyl)amino)cyclohexyl) (methyl)amino)-5-methyl-6-oxo-5,6-dihydro-1,5-naphthyridine-2,7-dicarbonitrile] | ≥ 1000 | < 10 |
| Cn1c(=O)c(C#N)c(N(C)[C@H]2CC[C@@H](N(CC3CC3)c3ccc(Cl)cc3)CC2)c2nc(C#N)ccc21 [Example 35, cis-8-((4-((4-chlorophenyl)(cyclopropylmethyl)amino)cyclohexyl)(methyl)amino)-5-methyl-6-oxo-5,6-dihydro-1,5-naphthyridine-2,7-dicarbonitrile] | ≥ 1000 | < 10 |
| CN1C(=O)COc2ccc(N(CC3CC3)[C@H]3CC[C@@H](N(C)c4c(C#N)c(=O)n(C)c5ccc(C#N)nc45)CC3)cc21 [Example 198, cis-8-((4-((cyclopropylmethyl)(4-methyl-3-oxo-3,4-dihydro-2H-benzo[b][1,4]oxazin-6-yl)amino)cyclohexyl)(methyl)amino)-5-methyl-6-oxo-5,6-dihydro-1,5-naphthyridine-2,7-dicarbonitrile] | ≥ 1000 | ≥ 1000 |
| Cc1cc2c(cc1N(CC1CCC1)[C@H]1CC[C@@H](N(C)c3c(C#N)c(=O)n(C)c4ccc(C#N)nc34)CC1)OCO2 [Example 152, cis-8-((4-((cyclobutylmethyl)(6-methylbenzo[d][1,3]dioxol-5-yl)amino)cyclohexyl)(methyl)amino)-5-methyl-6-oxo-5,6-dihydro-1,5-naphthyridine-2,7-dicarbonitrile] | ≥ 1000 | ≥ 1000 |
| Cn1c(=O)c(C#N)c(N(C)[C@H]2CC[C@H](N(CC3CC3)c3ccc(F)c(OC(F)F)c3)CC2)c2nc(Cl)ccc21 [Example 96] | ≥ 1000 | < 10 |
| Cn1c(=O)cc(N(C)[C@H]2CC[C@H](N(CC3CC3)c3ccc4c(c3)OCO4)CC2)c2nc(C#N)ccc21 [Example 88] | ≥ 1000 | ≥ 1000 |
| Cc1cc(F)ccc1N(CC1CC(F)(F)C1)[C@H]1CC[C@H](N(C)c2c(C#N)c(=O)n(C)c3ccc(C#N)nc23)CC1 [Example 178, trans-8-((-4-(((3,3-difluorocyclobutyl)methyl)(4-fluoro-2-methylphenyl)amino)cyclohexyl)(methyl)amino)-5-methyl-6-oxo-5,6-dihydro-1,5-naphthyridine-2,7-dicarbonitrile] | 100 to 1000 | 100 to 1000 |
| Cn1c(=O)cc(N(C)[C@H]2CC[C@@H](N(CC3CCC3)c3ccc4c(c3)OC(F)(F)O4)CC2)c2nc(C#N)ccc21 [Example 133, cis-8-((-4-((cyclobutylmethyl)(2,2-difluorobenzo[d] [1,3]dioxol-5-yl)amino)cyclohexyl)(methyl)amino)-5-methyl-6-oxo-5,6-dihydro-1,5-naphthyridine-2-carbonitrile] | 100 to 1000 | 10 to 100 |
| Cn1c(=O)cc(N(C)[C@H]2CC[C@@H](N(CC3CCC3)c3cccc4c3OCO4)CC2)c2nc(C#N)ccc21 [Example 111, cis-8-((-4-(benzo[d][1,3]dioxol-4-yl(cyclobutylmethyl)amino)cyclohexyl)(methyl)amino)-5-methyl-6-oxo-5,6-dihydro-1,5-naphthyridine-2-carbonitrile] | 100 to 1000 | 100 to 1000 |
| Cn1c(=O)cc(N(C)[C@H]2CC[C@@H](N(CC3CCC3)c3cc(F)cc(F)c3)CC2)c2nc(C#N)ccc21 [Example 134, cis-8-((-4-((cyclobutylmethyl)(3,5-difluorophenyl)amino)cyclohexyl)(methyl)amino)-5-methyl-6-oxo-5,6-dihydro-1,5-naphthyridine-2-carbonitrile] | 100 to 1000 | 10 to 100 |

Now from value to molecule:

| IC50 [1] [nM] | IC50 [2] [nM] | Structure (SMILES) |
| --- | --- | --- |
| 100 to 1000 | 10 to 100 | Cc1cc(N(CC2CCOC2)[C@H]2CC[C@@H](N(C)c3cc(=O)n(C)c4ccc(C#N)nc34)CC2)ccc1F (stereo partly drawn) [Example 157, cis-8-((-4-((4-fluoro-3-methylphenyl) ((tetrahydrofuran-3-yl)methyl)amino)cyclohexyl) (methyl)amino)-5-methyl-6-oxo-5,6-dihydro-1,5-naphthyridine-2-carbonitrile] |
| 10 to 100 | < 10 | Cn1c(=O)c(C#N)c(N(C)[C@H]2CC[C@@H](N(CC3CCOC3)c3ccc(F)cc3)CC2)c2nc(C#N)ccc21 (relative stereo) [Example 55, cis-8-((4-((4-fluorophenyl)((tetrahydrofuran-3-yl)methyl)amino)cyclohexyl)(methyl)amino)-5-methyl-6-oxo-5,6-dihydro-1,5-naphthyridine-2,7-dicarbonitrile] |
| 100 to 1000 | ≥ 1000 | COc1cc(F)ccc1N(C1CC1)[C@H]1CC[C@H](N(C)c2cc(=O)n(C)c3ccc(C#N)nc23)CC1 [Example 3V] |
| 100 to 1000 | 10 to 100 | Cn1c(=O)c(C#N)c(N(C)[C@H]2CC[C@@H](N(CC3COC3)c3ccc(F)cc3)CC2)c2nc(Cl)ccc21 [Example 3M, cis-6-Chloro-4-[[4-(N-4-fluorophenyl-N-oxetan-3-ylmethylanilino)cyclohexyl]-methylamino]-1-methyl-2-oxo-1,2-dihydro-1,5-naphthyridine-3-carbonitrile] |
| 10 to 100 | 100 to 1000 | Cn1c(=O)c(C#N)c(N(C)[C@H]2CC[C@@H](N(CC3CC3)c3ccc4c(c3)OCO4)CC2)c2nc(Cl)ccc21 [Example 78] |
| 100 to 1000 | 100 to 1000 | COc1cc(F)ccc1N(C1CCC1)[C@H]1CC[C@@H](N(C)c2c(C#N)c(=O)n(C)c3ccc(C#N)nc23)CC1 [Example 18, cis-8-((4-(cyclobutyl(4-fluoro-2-methoxyphenyl)amino)cyclohexyl)(methyl)amino)-5-methyl-6-oxo-5,6-dihydro-1,5-naphthyridine-2,7-dicarbonitrile] |
| 10 to 100 | < 10 | Cn1c(=O)c(C#N)c(N(C)[C@H]2CC[C@@H](N(CC3CCCOC3)c3ccc(F)cc3)CC2)c2nc(C#N)ccc21 (relative stereo) [Example 57, cis-8-((4-((4-fluorophenyl)((tetrahydro-2H-pyran-3-yl)methyl)amino)cyclohexyl)(methyl)amino)-5-methyl-6-oxo-5,6-dihydro-1,5-naphthyridine-2,7-dicarbonitrile] |
| < 10 | ≥ 1000 | Cn1c(=O)c(C#N)c(N(C)[C@H]2CC[C@@H](N(CC3COCCO3)c3ccc4c(c3)OCCO4)CC2)c2nc(C#N)ccc21 (stereo partly drawn) [Example 182, cis-8-((4-(((1,4-dioxan-2-yl)methyl)(2,3-dihydrobenzo[b][1,4]dioxin-6-yl)amino)cyclohexyl) (methyl)amino)-5-methyl-6-oxo-5,6-dihydro-1,5-naphthyridine-2,7-dicarbonitrile] |
| 10 to 100 | 100 to 1000 | Cc1cc2c(cc1N(CC1CCC1)[C@H]1CC[C@@H](N(C)c3cc(=O)n(C)c4ccc(C#N)nc34)CC1)OCO2 [Example 150, cis-8-((4-((cyclobutylmethyl)(6-methylbenzo[d][1,3]dioxol-5-yl)amino)cyclohexyl)(methyl)amino)-5-methyl-6-oxo-5,6-dihydro-1,5-naphthyridine-2-carbonitrile] |
